This test addresses NEK7 (Homo sapiens, UniProt Q8TDX7). Briefly: biochemical in vitro kinase assay (Reaction Biology), 10-dose IC50, […] ATP.

Sequence of NEK7 (Q8TDX7 whole entry): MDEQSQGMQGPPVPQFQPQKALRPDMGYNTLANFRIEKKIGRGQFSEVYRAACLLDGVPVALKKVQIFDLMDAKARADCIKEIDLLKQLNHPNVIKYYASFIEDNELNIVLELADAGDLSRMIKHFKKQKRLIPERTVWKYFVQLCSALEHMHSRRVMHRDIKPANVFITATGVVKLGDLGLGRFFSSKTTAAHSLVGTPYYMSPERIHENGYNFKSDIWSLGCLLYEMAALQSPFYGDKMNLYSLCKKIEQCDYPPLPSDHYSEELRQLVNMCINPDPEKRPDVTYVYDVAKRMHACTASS

Usually IC50 stands for the concentration needed to halve the response being measured. The compound `CCN1CCN(c2ccc(Nc3ncc4scc(-c5cccc(C(=O)NCCN(C)C)c5)c4n3)cc2)CC1` [SLC3037, N-(2-(Dimethylamino)ethyl)-3-(2-((4-(4-ethylpiperazin-1-yl)phenyl)amino)thieno[3,2-d]pyrimidin-7-yl)benzamide] yielded an IC50 of 2.85 µM.

The record behind these values is article PMC10869544 (Frontiers in Immunology, 2024).
